According to patent US20260224714A1, “CYCLING LYSOSOMAL TARGETING ANTIBODY CONJUGATES” (Lycia Therapeutics, Inc., priority 2023, published 2026):

Assays:
Assay type in all cases: cell-based
[1] = system: LysoLight-labelled human IgE; test: Lysosomal degradation of LysoLight-labelled IgE in HepG2 cells, live cell imaging (Example 7); settings: equimolar conjugate:LysoLight IgE, area under the curve of deep red fluorescence over three days, normalized to unconjugated parent protein
Description: (§1) The following experiments were performed with HepG2 hepatocellular carcinoma cells, grown in Eagle's Minimal Essential Media (EMEM) supplemented with 10% FBS and penicillin/streptomycin.
HepG2 cells (15,000) were plated in 96-well plates 72 hours before performing the experiment. On the day of the experiment, indicated the conjugate was diluted in fresh EMEM and mixed with an equimolar stock of LysoLight-labelled human IgE (Enzo Life Sciences, BPD-DIA-HE1), at 200 nM of each compound. The precomplexed conjugate:IgE mixture was incubated at room temperature for 30 minutes. During the precomplexing step, media from HepG2 was removed, and 40 ul of EMEM with 1/100 Fc Receptor Blocking Solution (Biolegend Human TruStain FcX, 422302) was added. Cells incubated in the receptor blocking solution for 10 minutes while making serial dilutions (1:3) of conjugate:IgE stock solution in EMEM. 40 ul of the conjugate:IgE mixture in EMEM was then added to cells (five dilutions, with final concentrations ranging from 100 nM to 1.23 nM). Cells were placed in an IncuCyte Live-Cell Analysis System (Sartorius) for long term live cell imaging analysis (10× magnification, 3 images per well). One hour after addition of compound, image acquisition to measure red fluorescence from the LysoLight probe was started, with further Images collected every hour for 72 hours. Fluorescence of the LysoLight probe only occurs when cleaved by lysosomal cathepsin proteases, confirming lysosomal delivery and degradation of target. After 72 hours, mean red fluorescence was measured for each time point, and the area under the curve of fluorescence overtime was used to measure total degradation over the 3-day time period.

[2] = system: Alexa Fluor647 labelled human IgE; test: Uptake assay: internalization of Alexa Fluor 647 labelled IgE in wild type HepG2 cells (Example 6); settings: equimolar conjugate and AF647 IgE, 2 hours, median cellular AF647 intensity by flow cytometry, normalized to unconjugated parent protein
Description: as §1
(§2) HepG2 cells (25,000) were plated in 96-well plates 48 hours before the experiment was performed. On the day of the experiment, indicated the conjugate was mixed with an equimolar stock of Alexa Fluor647 labelled human IgE (Enzo Life Sciences, BPD-DIA-HE 1) in fresh EMEM as a 600 nM stock. The precomplexed conjugate:IgE mixture was incubated at room temperature for 30 minutes. During the precomplexing step, media from HepG2 was removed, and 40 ul of EMEM with 1/100 Fc Receptor Blocking Solution (Biolegend Human TruStain FcX, 422302) was added. Cells incubated in the receptor blocking solution for 10 minutes while making serial dilutions (1:3) of conjugate:IgE stock solution in EMEM. 40 ul of the conjugate:IgE mixture in EMEM was then added to cells (six dilutions, with final concentrations ranging from 300 nM to 1.23 nM) for 2 hours before washing with DPBS and detaching with 0.25% Trypsin/EDTA. Cells were pelleted in 96-well conical bottom plates, washed once with FACS Buffer with BSA (Rockland Immunochemicals), and resuspended in FACS Buffer with BSA. Uptake of fluorescently labelled IgE was measured by analyzing median cellular AF647 intensity by flow cytometry.
(§3) Cells were incubated with equimolar ratio of conjugate and AF647 IgE at indicated concentrations, with data normalized to unconjugated parent protein (Oma S35HWY57H-LC).

HepG2 cells = test: Externalization of conjugates from a cell following internalization (cycling), high-throughput format (Example 11); settings: 50 nM conjugate 1 hour, stringent washes, Alexa Fluor 647-labelled a-human IgG 1 hour, FACS, normalized to unconjugated parent protein, average of two replicate wells
Description: as §1
The method was also adapted to a high-throughput format. In this assay, 25,000 HepG2 cells were plated in 96-well plates 48 hours before performing the experiment. The day of the experiment, cells were incubated with conjugate at indicated concentrations for 1 hour. Cells were then placed on ice to prevent trafficking/recycling during wash steps, and washed once with DPBS, once with sodium acetate buffer (20 mM, 150 mM NaCl, pH 5.2), once with Earle's Balanced Salt Solution (EBSS) adjusted to pH 2.5, and once again with DPBS, to remove conjugate from media and cell surface. Afterwards, 100 ul of prewarmed (to 37° C.) EMEM with 1 μg/ml of human a-IgG antibody conjugated to Alexa Fluor647 fluorophores was added to cells for 1 hour before washing with DPBS and detaching with 0.25% Trypsin/EDTA. Cells were pelleted in 96-well conical bottom plates, washed once with FACS Buffer with BSA (Rockland Immunochemicals), resuspended FACS Buffer with BSA and median AF647 intensity was analyzed by flow cytometry. The amount of conjugate capable of cycling to the cell surface (being externalized from the cell) and binding to the Alexa Fluor647 labelled α-IgG was measured by analyzing median cellular 647 fluorescence intensity by flow cytometry. […]. Reported values are the average of the values of two replicate wells.

recombinant IgE = test: Degradation of super-stoichiometric levels of target in HepG2 cells (Example 13, Table 31); settings: 1 nM conjugate and 25 nM IgE for three days, (A-B)/C IgE depleted relative to conjugate, average of two replicate wells
Description: as §1
For evaluation of compounds in a high throughput format, 25,000 HepG2 cells were plated in a 96-well plate. The following day, 50 ul of 1 nM conjugate and 25 nM recombinant IgE in EMEM were added to the cells. 50 ul of the initial stock of conjugate:IgE was saved to quantify for an initial time point. Three days later, the media was collected from cells, and both initial and 72 hour time points were quantified for IgE concentration using the MSD assay.
HepG2 cells were incubated in media containing 1 nM conjugate and 25 nM IgE for three days. Concentrations of IgE at beginning and end of experiment were quantified by ELISA-based assay. Molar equivalents of IgE depleted relative to conjugate added are shown, calculated as (A-B)/C, where A is the initial concentration of IgE, B is the concentration of IgE at day three, and C is the concentration of conjugate. Reported values are the average of the values of two replicate wells.

[3] = system: Alexa Fluor647 labelled human IgE; test: Uptake assay: internalization of Alexa Fluor 647 labelled IgE in ASGPR1/2 KO HepG2 cells (Example 6); settings: equimolar conjugate and AF647 IgE, normalized to unconjugated parent protein
Description: as §1, §2, §3

human IgE = test: Degradation of initial and subsequent dose of target in HepG2 cells (Example 12, Table 30); settings: normalized to unconjugated; for Normalized Fluorescence Post Wash Median Green: after wash, probe-conjugated IgE added for 4 hours, subsequent dose of target; for Normalized Fluorescence Precomplex Median Deep Red: precomplexed equimolar conjugate:IgE (cathepsin-cleavable quenched fluorescent probe) added for 2 hours, initial dose of target
Description: as §1
HepG2 cells (25,000) were plated in 96-well plates 48 hours before performing the experiment. On the day of the experiment, indicated conjugate was diluted in fresh EMEM as a 2× stock, and mixed with an equimolar stock of human IgE (Enzo Life Sciences, BPD-DIA-HE 1) conjugated to a cathepsin-cleavable quenched fluorescent probe. The precomplexed conjugate:IgE mixture was incubated at 37 degrees Celsius for 30 minutes. Media from HepG2 was removed, and conjugate:IgE mixture in EMEM was added to cells for 2 hours. Cells were then placed on ice to prevent trafficking/recycling during wash steps, and washed once with DPBS, once with sodium acetate buffer (20 mM, 150 mM NaCl, pH 5.2), once with Earle's Balanced Salt Solution (EBSS) adjusted to pH 2.5, and once again with DPBS, to remove conjugate from media and cell surface. Afterwards, 100 ul of prewarmed (to 37 degrees Celsius) EMEM with cathepsin-cleavable quenched fluorescent probe-conjugated IgE was added to cells for 4 hours before washing with DPBS and detaching with 0.25% Trypsin/EDTA. Cells were pelleted in 96-well conical bottom plates, washed once with FACS Buffer with BSA (Rockland Immunochemicals), resuspended FACS Buffer with BSA and median 488 and 647 intensity was analyzed by flow cytometry. Delivery of labelled IgE to the lysosome and subsequent cleavage of initial precomplexed IgE was measured by analyzing median cellular 647 intensity, while cleavage of the post wash addition of IgE, which should only be degraded by recycling conjugates which released the first round of precomplexed IgE, was analyzed by median cellular 488 intensity. HepG2 cells were treated with human IgE (Enzo Life Sciences, BPD-DIA-HE1) conjugated to a cathepsin-cleavable quenched deep red (647) fluorescent probe precomplexed to conjugate fortwo hours, then washed, and fresh media with IgE conjugated to a green (488) cathepsin-cleavable fluorescent probe was then added without conjugate. […] Fluorescence values were measured by FACS and normalized to unconjugated parent protein. Reported values are the average of the values of two replicate wells.

Row | Structure (SMILES) | Normalized Fluorescence 3.7 nM [1] | Normalized Fluorescence 100 nM [1] | Normalized Fluorescence 3.7 nM WT [2] | Normalized Fluorescence 100 nM WT [2] | Normalized Fluorescence (HepG2 cells) | Average Degradation (Molar equivalents) (recombinant IgE) | Normalized Fluorescence 100 nM ASGPR KO [3] | Normalized Fluorescence Post Wash Median Green (human IgE) | Normalized Fluorescence Precomplex Median Deep Red (human IgE)
1 | O=C(CCOCCOCCOCCNS(=O)(=O)c1ccc(N2C(=O)C=CC2=O)cc1)NC(CCCNC(=O)NCCOCCOCCOCc1cn([C@H]2[C@H]3OC[C@](CO)(O3)[C@H](O)[C@@H]2O)nn1)(CCCNC(=O)NCCOCCOCCOCc1cn([C@H]2[C@H]3OC[C@](CO)(O3)[C@H](O)[C@@H]2O)nn1)CCCNC(=O)NCCOCCOCCOCc1cn([C@H]2[C@H]3OC[C@](CO)(O3)[C@H](O)[C@@H]2O)nn1 [Compound 2328] | 4.4 | 2.5 | 29.7 | 146.5 | 15.1 | −0.3 Molar equivalents | 1.1 | 1.8 | 2.4
2 | CC(=O)N[C@@H]1[C@@H](O)[C@@H](O)[C@@H](CO)O[C@@H]1CCCOCCOCCNC(=O)NCCCC(CCCNC(=O)NCCOCCOCCC[C@H]1O[C@H](CO)[C@H](O)[C@H](O)[C@H]1NC(C)=O)(CCCNC(=O)NCCOCCOCCC[C@H]1O[C@H](CO)[C@H](O)[C@H](O)[C@H]1NC(C)=O)NC(=O)COCCOCCOCCOCCN(C(=O)CBr)C1CCOCC1 [Compound 2307, N-[4-[2-[2-[3-[(2R,3R,4R,5R,6R)-3-acetamido-4,5-dihydroxy-6-(hydroxymethyl)tetrahydropyran-2-yl]propoxy]ethoxy]ethylcarbamoylamino]-1,1-bis[3-[2-[2-[3-[(2R,3R,4R,5R,6R)-3-acetamido-4,5-dihydroxy-6-(hydroxymethyl)tetrahydropyran-2-yl]propoxy]ethoxy]ethylcarbamoylamino]propyl]butyl]-2-[2-[2-[2-[2-[(2-bromoacetyl)-tetrahydropyran-4-yl-amino]ethoxy]ethoxy]ethoxy]ethoxy]acetamide] | 7.9 | 4.1 | 81.6 | 253.2 | 42.9 | 5.6 Molar equivalents | 1.2 | 3.5 | 3.7
3 | O=C(CCOCCOCCOCCNS(=O)(=O)c1ccc(N2C(=O)C=CC2=O)cc1)NC(CCCNC(=O)NCCOCCOCCOC[C@@H]1CN([C@H]2CO[C@H](CO)[C@H](O)[C@@H]2O)C(=O)O1)(CCCNC(=O)NCCOCCOCCOC[C@@H]1CN([C@H]2CO[C@H](CO)[C@H](O)[C@@H]2O)C(=O)O1)CCCNC(=O)NCCOCCOCCOC[C@@H]1CN([C@H]2CO[C@H](CO)[C@H](O)[C@@H]2O)C(=O)O1 [Compound 2306] | 5.6 | 1.8 | 31.0 | 164.6 | 23.1 | 1.8 Molar equivalents | 1.1 | 2.4 | 2.5
4 | CC(=O)N[C@H]1[C@H](OCCOCCOCCOCCNC(=O)CCOCC(COCCC(=O)NCCOCCOCCOCCO[C@@H]2O[C@H](CO)[C@H](O)[C@H](O)[C@H]2NC(C)=O)(COCCC(=O)NCCOCCOCCOCCO[C@@H]2O[C@H](CO)[C@H](O)[C@H](O)[C@H]2NC(C)=O)NC(=O)CCOCCOCCOCCOCCNC(=O)c2ccc(N3C(=O)C=CC3=O)cc2)O[C@H](CO)[C@H](O)[C@@H]1O [Compound 2402-C] | 2.2 | 2.1 | 19.6 | 84.3 | 10.5 | 0.7 Molar equivalents | 1.3 | 1.6 | 2.1
